The target in this test is T1, human Orexin-2 receptor (Homo sapiens, UniProt O43614).
T1 construct: expressed in transfected cells; host or cells: HEK293 cells (transient transfection, Genejuice); membranes
T1 sequence (O43614 1-444): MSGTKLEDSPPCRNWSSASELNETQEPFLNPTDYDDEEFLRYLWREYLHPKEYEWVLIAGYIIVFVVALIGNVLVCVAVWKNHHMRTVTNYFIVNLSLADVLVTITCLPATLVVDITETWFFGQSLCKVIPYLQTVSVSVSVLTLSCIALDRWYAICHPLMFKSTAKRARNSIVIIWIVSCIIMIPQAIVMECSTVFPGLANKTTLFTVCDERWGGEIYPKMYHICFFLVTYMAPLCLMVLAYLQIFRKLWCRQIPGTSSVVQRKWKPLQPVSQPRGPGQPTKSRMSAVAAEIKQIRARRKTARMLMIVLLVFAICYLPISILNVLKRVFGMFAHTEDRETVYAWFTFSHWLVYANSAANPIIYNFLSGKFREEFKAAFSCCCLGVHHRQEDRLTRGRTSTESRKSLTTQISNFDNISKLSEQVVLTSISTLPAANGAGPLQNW
Put plainly: 3H-EMPA radioligand binding assay. The settings on record: 3H-EMPA displacement, membranes of HEK293 cells transfected with human Orexin-2 receptor; KI by Cheng-Prussoff; read-out: OX2 pKi ave (converted). The method, boiled down: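 Membranes from HEK293 cells transiently transfected with human orexin-2 receptor cDNA, assayed with [3H]EMPA. Bound ligand collected on PEI-treated GF/B filters and counted by scintillation; IC50 from inhibition curves, Ki by Cheng-Prusoff.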
For `CSc1cncc(N2C(=O)N(Cc3c(F)cccc3Cl)c3ccccc3S2(=O)=O)c1` [Example 151, 4-(2-Chloro-6-fluorobenzyl)-2-[5-(methylsulfanyl)pyridin-3-yl]-2H-1,2,4-benzothiadiazin-3(4H)-one 1,1-dioxide], the Ki is 2 nM. Regarding `CSc1cncc(N2C(=O)N(Cc3c(F)cc(F)cc3F)c3ccccc3S2(=O)=O)c1` [Example 152, 2-[5-(Methylsulfanyl)pyridin-3-yl]-4-(2,4,6-trifluorobenzyl)-2H-1,2,4-benzothiadiazin-3(4H)-one 1,1-dioxide], the Ki is 5.89 nM.

On to `COc1cc(F)c(CN2C(=O)N(c3ccc(OC)c(OC)n3)S(=O)(=O)c3ccccc32)c(F)c1` [Example 153, 4-(2,6-Difluoro-4-methoxybenzyl)-2-(5,6-dimethoxypyridin-2-yl)-2H-1,2,4-benzothiadiazin-3(4H)-one 1,1-dioxide], for which the Ki was 0.224 nM. Take `COc1cc(F)c(CN2C(=O)N(c3ccc(OC)nc3)S(=O)(=O)c3ccccc32)c(Cl)c1` [Example 154, 4-(2-Chloro-6-fluoro-4-methoxybenzyl)-2-(6-methoxypyridin-3-yl)-2H-1,2,4-benzothiadiazin-3(4H)-one 1,1-dioxide]: the Ki was 3.02 nM. Then `COc1cc(N2C(=O)N(Cc3c(F)cc(F)cc3Cl)c3ccccc3S2(=O)=O)cnc1OC` [Example 155, 4-(2-Chloro-4,6-difluorobenzyl)-2-(5,6-dimethoxypyridin-3-yl)-2H-1,2,4-benzothiadiazin-3(4H)-one 1,1-dioxide], with 1.74 nM. For the molecule `O=C1N(Cc2c(F)cc(F)cc2F)c2ccccc2S(=O)(=O)N1Cc1cc(=O)[nH]c2ccccc12` [Example 156, 4-(2,4,6-Trifluorobenzyl)-2-[(2-oxo-1,2-dihydroquinolin-4-yl)methyl]-2H-1,2,4-benzothiadiazin-3(4H)-one 1,1-dioxide], the Ki is 11.2 nM.

As to `COc1cc(N2C(=O)N(Cc3c(F)cc(F)cc3Cl)c3ccccc3S2(=O)=O)cc(OC)n1` [Example 157, 4-(2-Chloro-4,6-difluorobenzyl)-2-(2,6-dimethoxypyridin-4-yl)-2H-1,2,4-benzothiadiazin-3(4H)-one 1,1-dioxide], the Ki is 0.575 nM.

On to `CN(C)c1cccc(N2C(=O)N(Cc3c(F)cc(F)cc3F)c3ccccc3S2(=O)=O)n1` [Example 158, 2-[6-(Dimethylamino)pyridin-2-yl]-4-(2,4,6-trifluorobenzyl)-2H-1,2,4-benzothiadiazin-3(4H)-one 1,1-dioxide], for which the Ki is 3.39 nM. Take `CN(C)c1cc(N2C(=O)N(Cc3c(F)cc(F)cc3F)c3ccccc3S2(=O)=O)ccn1` [Example 159, 2-[2-(Dimethylamino)pyridin-4-yl]-4-(2,4,6-trifluorobenzyl)-2H-1,2,4-benzothiadiazin-3(4H)-one 1,1-dioxide]: the Ki is 3.09 nM. Under `CSc1ccc(N2C(=O)N(Cc3c(F)cc(F)cc3F)c3ccccc3S2(=O)=O)cn1` [Example 160, 2-[6-(Methylsulfanyl)pyridin-3-yl]-4-(2,4,6-trifluorobenzyl)-2H-1,2,4-benzothiadiazin-3(4H)-one 1,1-dioxide] stands 17.4 nM; under `COc1ccc(N2C(=O)N(Cc3c(F)cc(F)cc3Cl)c3ccccc3S2(=O)=O)nc1OC` [Example 161, 4-(2-Chloro-4,6-difluorobenzyl)-2-(5,6-dimethoxypyridin-2-yl)-2H-1,2,4-benzothiadiazin-3(4H)-one 1,1-dioxide], 1.26 nM; under `COc1cc(N2C(=O)N(Cc3ncc(F)cc3C)c3ccccc3S2(=O)=O)cc(OC)n1` [Example 162, 2-(2,6-Dimethoxypyridin-4-yl)-4-[(5-fluoro-3-methylpyridin-2-yl)methyl]-2H-1,2,4-benzothiadiazin-3(4H)-one 1,1-dioxide], 18.6 nM. In the case of `COc1cc(F)c(CN2C(=O)N(c3cc(OC)nc(OC)c3)S(=O)(=O)c3cccnc32)c(F)c1` [Example 163, 4-(2,6-Difluoro-4-methoxybenzyl)-2-(2,6-dimethoxypyridin-4-yl)-2H-pyrido[2,3-e][1,2,4]thiadiazin-3(4H)-one 1,1-dioxide], the Ki was 1.38 nM.

As for `COc1cc(F)c(CN2C(=O)N(c3ccc(OC)c(OC)n3)S(=O)(=O)c3cccnc32)c(F)c1` [Example 164, 4-(2,6-Difluoro-4-methoxybenzyl)-2-(5,6-dimethoxypyridin-2-yl)-2H-pyrido[2,3-e][1,2,4]thiadiazin-3(4H)-one 1,1-dioxide], the Ki was 0.661 nM.

Consider `COc1cc(F)c(CN2C(=O)N(c3cnc(OC)c(OC)c3)S(=O)(=O)c3cccnc32)c(F)c1` [Example 165, 4-(2,6-Difluoro-4-methoxybenzyl)-2-(5,6-dimethoxypyridin-3-yl)-2H-pyrido[2,3-e][1,2,4]thiadiazin-3(4H)-one 1,1-dioxide], for which the Ki is 0.676 nM. With `COc1cc(N2C(=O)N(Cc3c(F)cccc3Cl)c3ccccc3S2(=O)=O)cc(OC)n1` [Example 166, 4-(2-Chloro-6-fluorobenzyl)-2-(2,6-dimethoxypyridin-4-yl)-2H-1,2,4-benzothiadiazin-3(4H)-one 1,1-dioxide], the Ki is 2.69 nM.

Consider `COc1cc(N2C(=O)N(Cc3c(F)cccc3F)c3ccccc3S2(=O)=O)cc(OC)n1` [Example 167, 4-(2,6-Difluorobenzyl)-2-(2,6-dimethoxypyridin-4-yl)-2H-1,2,4-benzothiadiazin-3(4H)-one 1,1-dioxide], for which the Ki was 2.19 nM.

For the molecule `COc1ccc(N2C(=O)N(Cc3c(F)cccc3Cl)c3ncccc3S2(=O)=O)nc1OC` [Example 168, 4-(2-Chloro-6-fluorobenzyl)-2-(5,6-dimethoxypyridin-2-yl)-2H-pyrido[2,3-e][1,2,4]thiadiazin-3(4H)-one 1,1-dioxide], the Ki was 1.23 nM. Then `COc1ccc(N2C(=O)N(Cc3c(F)cccc3F)c3ncccc3S2(=O)=O)nc1OC` [Example 169, 4-(2,-Difluorobenzyl)-2-(5,6-dimethoxypyridin-2-yl)-2H-pyrido[2,3-e][1,2,4]thiadiazin-3(4H)-one 1,1-dioxide], with 0.851 nM; and `COc1cnc(N2C(=O)N(Cc3c(F)cc(F)cc3F)c3ccccc3S2(=O)=O)nc1OC` [Example 170, 2-(4,5-dimethoxypyrimidin-2-yl)-4-(2,4,6-trifluorobenzyl)-2H-1,2,4-benzothiadiazin-3(4H)-one 1,1-dioxide], with 7.24 nM; and `COc1cc(F)c(CN2C(=O)N(c3cnc(OC)c(C)c3)S(=O)(=O)c3ccccc32)c(F)c1` [Example 171, 4-(2,6-difluoro-4-methoxybenzyl)-2-(6-methoxy-5-methylpyridin-3-yl)-2H-1,2,4-benzothiadiazin-3(4H)-one 1,1-dioxide], with 1.78 nM. As for `CNc1ccc(N2C(=O)N(Cc3c(F)cc(F)cc3F)c3ncccc3S2(=O)=O)nc1OC` [Example 172, 2-[6-methoxy-5-(methylamino)pyridin-2-yl]-4-(2,4,6-trifluorobenzyl)-2H-pyrido[2,3-e][1,2,4]thiadiazin-3(4H)-one 1,1-dioxide], the Ki was 7.76 nM. Then `COc1cc(F)c(CN2C(=O)N(c3ccc(C)c(C)n3)S(=O)(=O)c3cccnc32)c(F)c1` [Example 173, 4-(2,6-Difluoro-4-methoxybenzyl)-2-(5,6-dimethylpyridin-2-yl)-2H-pyrido[2,3-e][1,2,4]thiadiazin-3(4H)-one 1,1-dioxide], with 2.4 nM; and `COc1cc(F)c(CN2C(=O)N(c3cc(C)cc(C)n3)S(=O)(=O)c3cccnc32)c(F)c1` [Example 174, 4-(2,6-Difluoro-4-methoxybenzyl)-2-(4,6-dimethylpyridin-2-yl)-2H-pyrido[2,3-e][1,2,4]thiadiazin-3(4H)-one 1,1-dioxide], with 7.24 nM.

Turning to `COc1cc(F)c(CN2C(=O)N(c3ccc(C)c(OC)n3)S(=O)(=O)c3cccnc32)c(F)c1` [Example 175, 4-(2,6-Difluoro-4-methoxybenzyl)-2-(6-methoxy-5-methylpyridin-2-yl)-2H-pyrido[2,3-e][1,2,4]thiadiazin-3(4H)-one 1,1-dioxide], the Ki was 1.35 nM. For the molecule `COc1cc(N2C(=O)N(Cc3c(F)cc(F)cc3F)c3ncccc3S2(=O)=O)cnc1C` [Example 176, 2-(5-Methoxy-6-methylpyridin-3-yl)-4-(2,4,6-trifluorobenzyl)-2H-pyrido[2,3-e][1,2,4]thiadiazin-3(4H)-one 1,1-dioxide], the Ki is 6.46 nM. Turning to `CNc1ncc(N2C(=O)N(Cc3c(F)cc(OC)cc3F)c3ncccc3S2(=O)=O)cc1OC` [Example 177, 2-[5-Methoxy-6-(methylamino)pyridin-3-yl]-4-(2,6-difluoro-4-methoxybenzyl)-2H-pyrido[2,3-e][1,2,4]thiadiazin-3(4H)-one 1,1-dioxide], the Ki is 2.19 nM.

As for `COc1cc(F)c(CN2C(=O)N(c3cnc(C)c(C)c3)S(=O)(=O)c3ccccc32)c(F)c1` [Example 178, 4-(2,6-difluoro-4-methoxybenzyl)-2-(5,6-dimethylpyridin-3-yl)-2H-1,2,4-benzothiadiazin-3(4H)-one 1,1-dioxide], the Ki is 4.37 nM. Regarding `CNc1nc(N2C(=O)N(Cc3c(F)cc(OC)cc3F)c3ccccc3S2(=O)=O)ccc1OC` [Example 179, 4-(2,6-difluoro-4-methoxybenzyl)-2-[5-methoxy-6-(methylamino)pyridin-2-yl]-2H-1,2,4-benzothiadiazin-3(4H)-one 1,1-dioxide], the Ki was 3.72 nM.

Values taken from patent US10316028B2, “Orexin receptor antagonists” (Heptares Therapeutics Limited, priority 2012, dated 2019).
